Test results: ChEMBL document CHEMBL1201862, “PubChem BioAssay data set” (2004)
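Following 48 hours of exposure in 96-well plates, responses at five concentrations were used to interpolate endpoints linearly. Abbreviation: GI50, concentration required for 50% inhibition of growth.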 Calls of active or inactive are those of the source. Rule as the data show it: active = GI50 up to about 1.1 µM and inactive = higher.

Tests used:
Experiment in all cases: inhibition of tumour cell growth, NCI panel, 48 h
PC-3 = system: PC-3
SN12C = system: SN12C
Hs-578T = system: Hs-578T
SK-MEL-28 = system: SK-MEL-28
NCI-H522 = system: NCI-H522
OVCAR-4 = system: OVCAR-4
NCI-H226 = system: NCI-H226
CAKI-1 = system: CAKI-1
UACC-62 = system: UACC-62
COLO 205 = system: COLO 205
A549 = system: A549
OVCAR-5 = system: OVCAR-5
SK-OV-3 = system: SK-OV-3
U-251 = system: U-251
MOLT-4 = system: MOLT-4
SF-539 = system: SF-539
SNB-19 = system: SNB-19
SK-MEL-2 = system: SK-MEL-2
MDA-MB-231 = system: MDA-MB-231
SK-MEL-5 = system: SK-MEL-5
MCF7 = system: MCF7
HCT-116 = system: HCT-116
M14 = system: M14
RPMI-8226 = system: RPMI-8226
IGROV-1 = system: IGROV-1
OVCAR-8 = system: OVCAR-8
A498 = system: A498
Malme-3M = system: Malme-3M
MDA-N = system: MDA-N
T47D = system: T47D
KM12 = system: KM12
HOP-92 = system: HOP-92
HT-29 = system: HT-29
HCT-15 = system: HCT-15
EKVX = system: EKVX
SF-268 = system: SF-268
SW-620 = system: SW-620
HOP-62 = system: HOP-62
ACHN = system: ACHN
786-0 = system: 786-0
HL-60 = system: HL-60
SF-295 = system: SF-295
MDA-MB-435 = system: MDA-MB-435
SR = system: SR
NCI/ADR-RES = system: NCI/ADR-RES
DU-145 = system: DU-145
UO-31 = system: UO-31
NCI-H23 = system: NCI-H23
BT-549 = system: BT-549
OVCAR-3 = system: OVCAR-3
CCRF-CEM = system: CCRF-CEM
LOX IMVI = system: LOX IMVI
HCC 2998 = system: HCC 2998
NCI-H460 = system: NCI-H460
K562 = system: K562
UACC-257 = system: UACC-257
SNB-75 = system: SNB-75
RXF 393 = system: RXF 393
TK-10 = system: TK-10

## C=CCN1C[C@@H](C)N([C@@H](c2ccccc2)c2ccc(C(=O)N(CC)CC)cc2)C[C@@H]1C
PC-3
  GI50: > 100 µM (inactive)
SN12C
  GI50: > 100 µM (inactive)
Hs-578T
  GI50: > 100 µM (inactive)
SK-MEL-28
  GI50: > 100 µM (inactive)
NCI-H522
  GI50: > 100 µM (inactive)
OVCAR-4
  GI50: > 100 µM (inactive)
NCI-H226
  GI50: 81.7 µM (inactive)
CAKI-1
  GI50: > 100 µM (inactive)
UACC-62
  GI50: > 100 µM (inactive)
COLO 205
  GI50: > 100 µM (inactive)
A549
  GI50: > 100 µM (inactive)
OVCAR-5
  GI50: > 100 µM (inactive)
SK-OV-3
  GI50: > 100 µM (inactive)
U-251
  GI50: > 100 µM (inactive)
MOLT-4
  GI50: 33.3 µM (inactive)
SF-539
  GI50: > 100 µM (inactive)
SNB-19
  GI50: > 100 µM (inactive)
SK-MEL-2
  GI50: > 100 µM (inactive)
MDA-MB-231
  GI50: > 100 µM (inactive)
SK-MEL-5
  GI50: > 100 µM (inactive)
MCF7
  GI50: > 100 µM (inactive)
HCT-116
  GI50: > 100 µM (inactive)
M14
  GI50: > 100 µM (inactive)
RPMI-8226
  GI50: 95.5 µM (inactive)
IGROV-1
  GI50: > 100 µM (inactive)
OVCAR-8
  GI50: > 100 µM (inactive)
A498
  GI50: > 100 µM (inactive)
Malme-3M
  GI50: > 100 µM (inactive)
MDA-N
  GI50: > 100 µM (inactive)
T47D
  GI50: 65.8 µM (inactive)
KM12
  GI50: > 100 µM (inactive)
HOP-92
  GI50: 8.43 µM (inactive)
HT-29
  GI50: > 100 µM (inactive)
HCT-15
  GI50: > 100 µM
EKVX
  GI50: > 100 µM (inactive)
SF-268
  GI50: > 100 µM (inactive)
SW-620
  GI50: > 100 µM (inactive)
HOP-62
  GI50: > 100 µM (inactive)
ACHN
  GI50: > 100 µM (inactive)
786-0
  GI50: > 100 µM (inactive)
HL-60
  GI50: > 100 µM (inactive)
SF-295
  GI50: > 100 µM (inactive)
MDA-MB-435
  GI50: > 100 µM (inactive)
SR
  GI50: > 100 µM (inactive)
NCI/ADR-RES
  GI50: > 100 µM (inactive)
DU-145
  GI50: > 100 µM (inactive)
UO-31
  GI50: > 100 µM (inactive)
NCI-H23
  GI50: > 100 µM (inactive)
BT-549
  GI50: > 100 µM (inactive)
OVCAR-3
  GI50: > 100 µM (inactive)

## CSc1ccc(Nc2cc(=O)[nH]c(=O)[nH]2)cc1
PC-3
  GI50: > 100 µM (inactive)
SN12C
  GI50: > 100 µM (inactive)
Hs-578T
  GI50: > 100 µM (inactive)
SK-MEL-28
  GI50: > 100 µM (inactive)
CCRF-CEM
  GI50: > 100 µM (inactive)
NCI-H522
  GI50: > 100 µM (inactive)
OVCAR-4
  GI50: > 100 µM (inactive)
NCI-H226
  GI50: > 100 µM (inactive)
CAKI-1
  GI50: > 100 µM (inactive)
UACC-62
  GI50: > 100 µM (inactive)
COLO 205
  GI50: > 100 µM (inactive)
A549
  GI50: > 100 µM (inactive)
OVCAR-5
  GI50: > 100 µM (inactive)
SK-OV-3
  GI50: > 100 µM (inactive)
U-251
  GI50: > 100 µM (inactive)
MOLT-4
  GI50: > 100 µM (inactive)
SF-539
  GI50: > 100 µM (inactive)
LOX IMVI
  GI50: > 100 µM (inactive)
HCC 2998
  GI50: > 100 µM (inactive)
SNB-19
  GI50: > 100 µM (inactive)
SK-MEL-2
  GI50: > 100 µM (inactive)
MDA-MB-231
  GI50: > 100 µM (inactive)
SK-MEL-5
  GI50: > 100 µM (inactive)
MCF7
  GI50: > 100 µM (inactive)
NCI-H460
  GI50: > 100 µM (inactive)
HCT-116
  GI50: > 100 µM (inactive)
M14
  GI50: > 100 µM (inactive)
RPMI-8226
  GI50: > 100 µM (inactive)
OVCAR-8
  GI50: 60.4 µM (inactive)
K562
  GI50: > 100 µM (inactive)
A498
  GI50: > 100 µM (inactive)
Malme-3M
  GI50: > 100 µM (inactive)
UACC-257
  GI50: > 100 µM (inactive)
MDA-N
  GI50: > 100 µM (inactive)
T47D
  GI50: > 100 µM (inactive)
HOP-92
  GI50: > 100 µM (inactive)
HT-29
  GI50: > 100 µM (inactive)
HCT-15
  GI50: > 100 µM
SF-268
  GI50: > 100 µM (inactive)
SW-620
  GI50: > 100 µM (inactive)
ACHN
  GI50: > 100 µM (inactive)
786-0
  GI50: > 100 µM (inactive)
HL-60
  GI50: > 100 µM (inactive)
SF-295
  GI50: > 100 µM (inactive)
MDA-MB-435
  GI50: > 100 µM (inactive)
SR
  GI50: > 100 µM (inactive)
NCI/ADR-RES
  GI50: > 100 µM (inactive)
DU-145
  GI50: > 100 µM (inactive)
UO-31
  GI50: > 100 µM (inactive)
NCI-H23
  GI50: > 100 µM (inactive)
BT-549
  GI50: > 100 µM (inactive)
OVCAR-3
  GI50: > 100 µM (inactive)

## CC(=O)N(CCc1ccccc1)C(C#N)c1ccccc1 (stereo not drawn)
PC-3
  GI50: > 100 µM (inactive)
SN12C
  GI50: > 100 µM (inactive)
Hs-578T
  GI50: > 100 µM (inactive)
CCRF-CEM
  GI50: > 100 µM (inactive)
NCI-H522
  GI50: > 100 µM (inactive)
OVCAR-4
  GI50: > 100 µM (inactive)
NCI-H226
  GI50: > 100 µM (inactive)
CAKI-1
  GI50: > 100 µM (inactive)
UACC-62
  GI50: > 100 µM (inactive)
COLO 205
  GI50: > 100 µM (inactive)
A549
  GI50: > 100 µM (inactive)
OVCAR-5
  GI50: > 100 µM (inactive)
SK-OV-3
  GI50: > 100 µM (inactive)
U-251
  GI50: > 100 µM (inactive)
MOLT-4
  GI50: > 100 µM (inactive)
SF-539
  GI50: > 100 µM (inactive)
LOX IMVI
  GI50: > 100 µM (inactive)
HCC 2998
  GI50: > 100 µM (inactive)
SNB-19
  GI50: > 100 µM (inactive)
SK-MEL-2
  GI50: > 100 µM (inactive)
MDA-MB-231
  GI50: > 100 µM (inactive)
SK-MEL-5
  GI50: > 100 µM (inactive)
MCF7
  GI50: > 100 µM (inactive)
HCT-116
  GI50: > 100 µM (inactive)
M14
  GI50: > 100 µM (inactive)
RPMI-8226
  GI50: > 100 µM (inactive)
SNB-75
  GI50: 10.5 µM (inactive)
IGROV-1
  GI50: > 100 µM (inactive)
OVCAR-8
  GI50: > 100 µM (inactive)
K562
  GI50: > 100 µM (inactive)
A498
  GI50: 91.2 µM (inactive)
Malme-3M
  GI50: > 100 µM (inactive)
UACC-257
  GI50: > 100 µM (inactive)
MDA-N
  GI50: > 100 µM (inactive)
T47D
  GI50: > 100 µM (inactive)
KM12
  GI50: > 100 µM (inactive)
HT-29
  GI50: > 100 µM (inactive)
HCT-15
  GI50: > 100 µM
EKVX
  GI50: > 100 µM (inactive)
SF-268
  GI50: > 100 µM (inactive)
SW-620
  GI50: > 100 µM (inactive)
HOP-62
  GI50: > 100 µM (inactive)
ACHN
  GI50: > 100 µM (inactive)
786-0
  GI50: > 100 µM (inactive)
HL-60
  GI50: > 100 µM (inactive)
SF-295
  GI50: > 100 µM (inactive)
MDA-MB-435
  GI50: > 100 µM (inactive)
SR
  GI50: > 100 µM (inactive)
NCI/ADR-RES
  GI50: > 100 µM (inactive)
RXF 393
  GI50: > 100 µM (inactive)
DU-145
  GI50: > 100 µM (inactive)
UO-31
  GI50: > 100 µM (inactive)
NCI-H23
  GI50: > 100 µM (inactive)
TK-10
  GI50: > 100 µM (inactive)
BT-549
  GI50: > 100 µM (inactive)
OVCAR-3
  GI50: 70.1 µM (inactive)
